Source: article PMC6220849, “Mechanistic and structural studies of KDM‐catalysed demethylation of histone 1 isotype 4 at lysine 26” (Febs Letters, 2018)
Square brackets hold non-standard residues; d marks the D form. Ends that are not written are not given here. Me3 = N-epsilon-trimethyl on lysine; Lys(Me) = CNCCCC[C@H](N)C(=O)O

B1: H1.4(18–32)K26me3 peptide (histone 1 isotype 4, residues 18-32, N-epsilon-trimethyllysine at K26) (peptide)
peptide: TPVKKKARK(Me3)SAGAAK-NH2
notes: histone H1.4 (histone 1 isotype 4), residues 18-32; only residues 24-29 are seen in the crystal structure; also called H1.4K26me3; H1.4K26me3 peptide; source: synthetic peptide

Tests used:
KDM5C (KDM5C1–765) = experiment: MALDI-TOF MS demethylation activity assay, KDM5C; format: biochemical, human; design: key: 🟢: Indicates that clear demethylation activity was observed; 🟡: Indicates that low level demethylation activity was observed (<10% conversion after 1 h); 🔴: Indicates no activity under the stated conditions (1 μM KDM, 10 μM peptide); 🟡*: *Indicates demethylation activity was only observed with 5 μM KDM; conditions: peptide as substrate, 1 μM KDM, 10 μM peptide, 50 mM HEPES pH 7.5, Fe(II) 10 μM, ascorbate 100 μM, 2OG 200 μM, 1 h at 37 °C
Method: (§1) Recombinant proteins (1 μM) were incubated with peptides (10 μM, sequences are given in Table S1) in 50 mM HEPES, pH 7.5 with addition of Fe(II) ammonium sulfate (10 μM), sodium ascorbate (100 μM) and 2‐oxoglutaric acid (200 μM). Reactions with KDM3A and KDM7A also contained 1 mM tris(2‐carboxyethyl)phosphine hydrochloride. No enzyme reactions were included as negative controls. Reactions were incubated for 1 h at 37 °C before being quenched with 1 : 1 (v/v) methanol. Analysis was carried out by MALDI‐TOF MS (Bruker, Billerica, MA, USA), with demethylation observed as mass shifts of 14 Da.
(§2) The propensity of human JmjC KDMs to catalyse demethylation at H1.4K26 was investigated using recombinant forms of the catalytic domains of representatives of each human JmjC KDM subfamily (KDM2‐7) and fragment peptides (Table S1) 37. Three peptides with identical sequences, corresponding to residues 18–32 of histone H1.4 (H2N‐[…]‐CONH2), but containing either a N ^ε‐tri‐, di‐ or monomethyllysine at K26 were synthesised (Fig. 1B and Table S1). Activity assays monitoring JmjC KDM‐catalysed demethylation of the peptides were then carried out; samples were prepared containing each peptide, 2‐oxoglutarate (2OG), ferrous iron, ascorbate and individual representatives from each JmjC KDM subfamily (KDM2A 38, KDM3A 21, KDM4E 22, KDM5C 39, 40, KDM6B 41, KDM7A 42).

KDM4D (KDM4D1–359) = experiment: MALDI-TOF MS demethylation activity assay, KDM4D; format: biochemical, human; design: key: 🟢: Indicates that clear demethylation activity was observed; 🟡: Indicates that low level demethylation activity was observed (<10% conversion after 1 h); 🔴: Indicates no activity under the stated conditions (1 μM KDM, 10 μM peptide); 🟡*: *Indicates demethylation activity was only observed with 5 μM KDM; conditions: peptide as substrate, 1 μM KDM, 10 μM peptide, 50 mM HEPES pH 7.5, Fe(II) 10 μM, ascorbate 100 μM, 2OG 200 μM, 1 h at 37 °C
Method: as §1
(§3) Given the activity observed with KDM4E and KDM7A, we decided to investigate the intra‐subfamily conservation of this demethylation activity. The demethylation activity of the other subfamily members (KDM4A‐D and KDM7B) was therefore screened. […] Note that as with H3K9, demethylation of the monomethylated H1.4K26 peptide was only observed with KDM4E, under the stated conditions 24.

KDM4B (KDM4B1–359) = experiment: MALDI-TOF MS demethylation activity assay, KDM4B; format: biochemical, human; design: key: 🟢: Indicates that clear demethylation activity was observed; 🟡: Indicates that low level demethylation activity was observed (<10% conversion after 1 h); 🔴: Indicates no activity under the stated conditions (1 μM KDM, 10 μM peptide); 🟡*: *Indicates demethylation activity was only observed with 5 μM KDM; conditions: peptide as substrate, 1 μM KDM, 10 μM peptide, 50 mM HEPES pH 7.5, Fe(II) 10 μM, ascorbate 100 μM, 2OG 200 μM, 1 h at 37 °C
Method: as §1, §3

KDM7B (PHF8; KDM7B1–447) = experiment: MALDI-TOF MS demethylation activity assay, KDM7B (PHF8); format: biochemical, human; design: key to demethylation activity on methylated H1.4 peptide: 🟢: Indicates that clear demethylation activity was observed; 🟡: Indicates that low level demethylation activity was observed (<10% conversion after 1 h); 🔴: Indicates no activity under the stated conditions (1 μM KDM, 10 μM peptide); 🟡*: *Indicates demethylation activity was only observed with 5 μM KDM; conditions: peptide as substrate; MALDI-TOF MS; 1 μM KDM (* = only with 5 μM KDM), 10 μM peptide, 50 mM HEPES pH 7.5, Fe(II) 10 μM, ascorbate 100 μM, 2OG 200 μM, 1 h at 37 °C
Method: as §1, §3
(§4) N ^ε‐Trimethylated H3K4 binds to the plant homeobox domain of KDM7B, targeting the N ^ε‐dimethyllysine at H3K9 to the catalytic domain, and thus promoting demethylation 29, 44. To test whether similar targeting may occur with H1.4, promoting activity at H1.4K26, an H1.4 peptide was synthesised containing di‐N ^ε‐methyllysine at K26 and tri‐N ^ε‐methyllysine at K21 (i.e. at the equivalent position in the sequence to K4 in the H3 peptide, Fig. 1B, Table S1). Monomethylation at H1.4K21 has previously been observed by proteomic mass spectrometry 45. With the aim of enhancing activity, the enzyme concentration was increased from 1 μM to 5 μM, and time course analyses were conducted with both KDM7A and KDM7B, both with the new peptide (H1.4(18–32)K21me3K26me2) and the H1.4 peptides methylated only at K26 (Fig. 2B). […] Thus, it appears unlikely that N ^ε‐trimethylation at H1.4K21 promotes demethylation at H1.4K26 by KDM7B.

KDM4A (KDM4A1–359) = experiment: MALDI-TOF MS demethylation activity assay, KDM4A; format: biochemical, human; design: key: 🟢: Indicates that clear demethylation activity was observed; 🟡: Indicates that low level demethylation activity was observed (<10% conversion after 1 h); 🔴: Indicates no activity under the stated conditions (1 μM KDM, 10 μM peptide); 🟡*: *Indicates demethylation activity was only observed with 5 μM KDM; conditions: peptide as substrate, 1 μM KDM, 10 μM peptide, 50 mM HEPES pH 7.5, Fe(II) 10 μM, ascorbate 100 μM, 2OG 200 μM, 1 h at 37 °C
Method: as §1, §3

KDM7A (KDM7A38–480) = experiment: MALDI-TOF MS demethylation activity assay, KDM7A; format: biochemical, human; conditions: peptide as substrate; MALDI-TOF MS; 1 μM KDM, 10 μM peptide, 50 mM HEPES pH 7.5, Fe(II) 10 μM, ascorbate 100 μM, 2OG 200 μM, 1 mM TCEP, 1 h at 37 °C
Method: as §1, §2, §4

KDM6B (KDM6B1141–1590) = experiment: MALDI-TOF MS demethylation activity assay, KDM6B; format: biochemical, human; design: key: 🟢: Indicates that clear demethylation activity was observed; 🟡: Indicates that low level demethylation activity was observed (<10% conversion after 1 h); 🔴: Indicates no activity under the stated conditions (1 μM KDM, 10 μM peptide); 🟡*: *Indicates demethylation activity was only observed with 5 μM KDM; conditions: peptide as substrate, 1 μM KDM, 10 μM peptide, 50 mM HEPES pH 7.5, Fe(II) 10 μM, ascorbate 100 μM, 2OG 200 μM, 1 h at 37 °C
Method: as §1, §2

KDM3A (KDM3A515–1317) = experiment: MALDI-TOF MS demethylation activity assay, KDM3A; format: biochemical, human; design: key: 🟢: Indicates that clear demethylation activity was observed; 🟡: Indicates that low level demethylation activity was observed (<10% conversion after 1 h); 🔴: Indicates no activity under the stated conditions (1 μM KDM, 10 μM peptide); 🟡*: *Indicates demethylation activity was only observed with 5 μM KDM; conditions: peptide as substrate, 1 μM KDM, 10 μM peptide, 50 mM HEPES pH 7.5, Fe(II) 10 μM, ascorbate 100 μM, 2OG 200 μM, 1 mM TCEP, 1 h at 37 °C
Method: as §1, §2

KDM4C (KDM4C1–359) = experiment: MALDI-TOF MS demethylation activity assay, KDM4C; format: biochemical, human; design: key: 🟢: Indicates that clear demethylation activity was observed; 🟡: Indicates that low level demethylation activity was observed (<10% conversion after 1 h); 🔴: Indicates no activity under the stated conditions (1 μM KDM, 10 μM peptide); 🟡*: *Indicates demethylation activity was only observed with 5 μM KDM; conditions: peptide as substrate, 1 μM KDM, 10 μM peptide, 50 mM HEPES pH 7.5, Fe(II) 10 μM, ascorbate 100 μM, 2OG 200 μM, 1 h at 37 °C
Method: as §1, §3

KDM2A (KDM2A1–557) = experiment: MALDI-TOF MS demethylation activity assay, KDM2A; format: biochemical, human; design: key: 🟢: Indicates that clear demethylation activity was observed; 🟡: Indicates that low level demethylation activity was observed (<10% conversion after 1 h); 🔴: Indicates no activity under the stated conditions (1 μM KDM, 10 μM peptide); 🟡*: *Indicates demethylation activity was only observed with 5 μM KDM; conditions: peptide as substrate, 1 μM KDM, 10 μM peptide, 50 mM HEPES pH 7.5, Fe(II) 10 μM, ascorbate 100 μM, 2OG 200 μM, 1 h at 37 °C
Method: as §1, §2

[1] = target: T1, KDM4A(1-359), catalytic domain of human histone lysine demethylase KDM4A (human, UniProt O75164 1-359); experiment: crystal structure; co-crystals of KDM4A(1-359).Ni(II).H1.4(18-32)K26me3.NOG; sitting drops at 4 °C, 0.1 M MIB buffer pH 6.0, 25% w/v PEG 1500; 10 mg/mL KDM4A, 5 mM peptide, 5 mM NOG, 4 mM NiCl2; conditions: both partners purified
T1 construct: KDM4A, human, catalytic domain, residues 1-359; In the crystal the active site holds Ni(II) (in place of Fe(II)) and N-oxalylglycine (NOG)
T1 sequence (looked up): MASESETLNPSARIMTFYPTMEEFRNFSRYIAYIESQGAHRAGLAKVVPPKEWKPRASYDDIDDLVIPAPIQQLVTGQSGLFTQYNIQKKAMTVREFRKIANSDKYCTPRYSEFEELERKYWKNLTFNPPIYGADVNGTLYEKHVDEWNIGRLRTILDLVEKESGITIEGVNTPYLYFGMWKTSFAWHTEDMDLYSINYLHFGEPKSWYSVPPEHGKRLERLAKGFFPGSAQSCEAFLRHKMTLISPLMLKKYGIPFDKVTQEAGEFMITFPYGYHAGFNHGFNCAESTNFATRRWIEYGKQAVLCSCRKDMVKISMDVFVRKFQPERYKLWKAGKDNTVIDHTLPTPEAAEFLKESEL

Row | Molecule | demethylation activity on methylated H1.4 peptide (KDM5C (KDM5C1–765)) | demethylation activity on methylated H1.4 peptide (KDM4D (KDM4D1–359)) | demethylation activity on methylated H1.4 peptide (KDM4B (KDM4B1–359)) | demethylation activity on methylated H1.4 peptide (KDM7B (PHF8; KDM7B1–447)) | demethylation activity on methylated H1.4 peptide (KDM4A (KDM4A1–359)) | demethylation activity on methylated H1.4 peptide (KDM7A (KDM7A38–480)) | demethylation activity on methylated H1.4 peptide (KDM6B (KDM6B1141–1590)) | demethylation activity on methylated H1.4 peptide (KDM3A (KDM3A515–1317)) | demethylation activity on methylated H1.4 peptide (KDM4C (KDM4C1–359)) | demethylation activity on methylated H1.4 peptide (KDM2A (KDM2A1–557)) | binding result [1]
1 | TPVKKKAR[Lys(Me)]SAGAAK [H1.4(18–32)K26me1, peptide of residues 18–32 of histone H1.4 with N ε-monomethyllysine at K26] | 🔴 | 🔴 | 🔴 | 🟡* | 🔴 | 🟡 (Indicates that low level demethylation activity was observed (<10% conversion after 1 h)) | 🔴 | 🔴 | 🔴 | 🔴 | 
2 | B1 |  |  |  |  |  |  |  |  |  |  | binds
